The target of data set [1] is Muscarinic acetylcholine receptor (Rattus norvegicus) (UniProt P08482+P08483+P08485+P08911+P10980). In words: Displacement of [3H]QNB from non-selective muscarinic receptor in rat cerebral cortex at 10 uM measured after 120 mins by scintillation counting method. Background: In a radioligand displacement assay an active substance lowers the binding of a labelled ligand.

In data set [2] the target is T1, Metabotropic glutamate receptor 2 (Homo sapiens, UniProt Q14416). In words: Positive allosteric modulation of recombinant human mGlu2 receptor expressed in hamster AV12 cells expressing EAAT1 assessed as potentiation of glutamate-induced intracellular calcium level measured after 24 to 48 hrs by FLIPR assay. The data set is classed as functional, cell-based.
The target of data set [3] is D(1A) dopamine receptor (Homo sapiens) (UniProt P21728). In words: Displacement of [3H]SCH23390 from recombinant human dopamine D1 receptor expressed in CHO cells at 10 uM measured after 60 mins by scintillation counting method. The data set is classed as cell-based.
For data set [4], the target named is Adrenergic receptor alpha-1 (Rattus norvegicus) (UniProt P15823+P23944+P43140). In words: Displacement of [3H]prazosin from non-selective alpha1 adrenergic receptor in rat brain cortex at 10 uM measured after 60 mins by scintillation counting method. The data set is classed as tissue-based.
For data set [5], the system named is Rattus norvegicus. In words: Decrease in plasma protein extravasation in fasted Harlan Sprague-Dawley rat model of migraine compound administered via oral gavage 1 hr prior to electrical stimulation of trigeminal ganglion measured after 15 mins by FITC-BSA based fluorescence assay. It counts as functional.
Data set [6] has as its target Metabotropic glutamate receptor 5 (Homo sapiens, UniProt P41594). In words: Antagonist activity at recombinant human mGlu5 receptor expressed in hamster AV12 cells expressing EAAT1 assessed as inhibition of glutamate-induced intracellular Ca2+ level measured after 24 hrs by FLIPR assay. It counts as functional, cell-based.
The target in data set [7] is 5-hydroxytryptamine receptor 4 (Homo sapiens, UniProt Q13639). Put plainly: Displacement of human recombinant 5HT4E receptor expressed in CHO cells after 60 mins by scintillation counting method. The data set is classed as cell-based.
For data set [8], the target named is 5-hydroxytryptamine receptor 2A (Homo sapiens, UniProt P28223). Put plainly: Activity at human 5HT2A receptor.
Data set [9] addresses T1, Metabotropic glutamate receptor 2. Put plainly: Positive allosteric modulation of recombinant human mGlu2 receptor expressed in hamster AV12 cells expressing EAAT1 assessed as potentiation of glutamate-induced intracellular calcium level measured after 24 to 48 hrs by FLIPR assay relative to glutamate. It counts as functional, cell-based. Background: A change in cytosolic calcium serves as a functional read-out for many receptors and channels.
Target sequence in this assay (Q14416 19-872 limits assumed): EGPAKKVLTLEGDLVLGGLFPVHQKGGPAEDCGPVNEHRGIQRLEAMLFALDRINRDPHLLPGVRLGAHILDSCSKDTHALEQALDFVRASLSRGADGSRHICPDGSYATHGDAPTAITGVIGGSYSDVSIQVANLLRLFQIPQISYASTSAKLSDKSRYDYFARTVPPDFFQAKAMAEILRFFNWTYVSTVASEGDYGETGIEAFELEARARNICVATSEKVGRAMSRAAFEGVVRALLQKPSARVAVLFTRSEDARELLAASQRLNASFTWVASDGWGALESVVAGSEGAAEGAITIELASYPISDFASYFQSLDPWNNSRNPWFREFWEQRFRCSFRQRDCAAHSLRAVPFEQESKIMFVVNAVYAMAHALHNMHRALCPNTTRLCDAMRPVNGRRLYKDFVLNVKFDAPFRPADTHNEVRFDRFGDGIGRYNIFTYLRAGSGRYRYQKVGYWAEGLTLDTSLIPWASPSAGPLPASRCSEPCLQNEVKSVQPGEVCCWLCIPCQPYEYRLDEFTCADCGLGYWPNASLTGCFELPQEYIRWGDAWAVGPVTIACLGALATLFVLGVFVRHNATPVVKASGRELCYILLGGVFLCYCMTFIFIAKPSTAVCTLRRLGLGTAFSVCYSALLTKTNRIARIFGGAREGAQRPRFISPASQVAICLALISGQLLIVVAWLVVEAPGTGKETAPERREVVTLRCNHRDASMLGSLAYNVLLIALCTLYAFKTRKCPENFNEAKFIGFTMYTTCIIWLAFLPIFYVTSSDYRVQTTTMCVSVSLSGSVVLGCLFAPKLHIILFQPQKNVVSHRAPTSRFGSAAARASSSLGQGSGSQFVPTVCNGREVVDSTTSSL

Data set [10] deals with Metabotropic glutamate receptor 8 (Homo sapiens) (UniProt O00222). Put plainly: Agonist activity at recombinant human mGlu8 expressed in hamster AV12 cells expressing EAAT1 assessed as increase in intracellular Ca2+ level at 30 uM after 24 hrs by FLIPR assay. The data set is classed as functional, cell-based.
Data set [11] deals with T2, Cysteinyl leukotriene receptor 1 (Homo sapiens, UniProt Q9Y271).
T2 sequence (Q9Y271 whole entry): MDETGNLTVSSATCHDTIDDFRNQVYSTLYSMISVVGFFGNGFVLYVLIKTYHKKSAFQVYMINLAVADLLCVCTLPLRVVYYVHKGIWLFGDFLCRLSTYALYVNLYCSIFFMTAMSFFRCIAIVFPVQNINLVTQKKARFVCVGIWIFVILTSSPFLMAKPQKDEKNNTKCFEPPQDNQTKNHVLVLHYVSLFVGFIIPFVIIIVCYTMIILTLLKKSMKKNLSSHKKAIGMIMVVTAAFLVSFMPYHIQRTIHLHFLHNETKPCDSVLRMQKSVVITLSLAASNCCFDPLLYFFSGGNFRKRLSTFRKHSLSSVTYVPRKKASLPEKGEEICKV
Put plainly: Antagonist activity at human CysLT1 receptor expressed in Syrian hamster AV12-664 cells assessed as decrease in LTD4-induced intracellular calcium level pretreated followed by LTD4 addition by fluo-3 dye based FLIPR assay. It counts as functional, cell-based.

Data set [12] concerns the target Metabotropic glutamate receptor 1 (Homo sapiens, UniProt Q13255). Put plainly: Antagonist activity at recombinant human mGlu1 receptor expressed in hamster AV12 cells expressing EAAT1 assessed as inhibition of glutamate-induced intracellular Ca2+ level measured after 24 hrs by FLIPR assay. It counts as functional, cell-based.
Data set [13] is filed under the species Rattus norvegicus. In words: Displacement of [3H]flunitrazepam from Central-type benzodiazepine receptor in rat cerebral cortex at 10 uM measured after 60 mins by scintillation counting method.
The nature of data set [14]: Ratio of drug level in brain to plasma in rat at 15 mg/kg, po. The data set is classed as ADME, organism-based.
The target of data set [15] is Metabotropic glutamate receptor 8 (Homo sapiens) (UniProt O00222). In words: Positive allosteric modulation of recombinant human mGlu8 expressed in hamster AV12 cells expressing EAAT1 assessed as potentiation of glutamate-induced intracellular Ca2+ level at 20 uM after 24 hrs by FLIPR assay. It counts as functional, cell-based.
Data set [16] has as its target Metabotropic glutamate receptor 4 (Homo sapiens) (UniProt Q14833). Put plainly: Positive allosteric modulation of recombinant human mGlu4 receptor expressed in hamster AV12 cells expressing EAAT1 assessed as potentiation of glutamate-induced intracellular Ca2+ level at 20 uM after 24 hrs by FLIPR assay. It counts as functional, cell-based.
The nature of data set [17]: Oral bioavailability in rat at 1 mg/kg. It counts as ADME, organism-based. To be noted: in vivo.
Data set [18] is described as follows: Half life in rat at 1 mg/kg, iv. The data set is classed as ADME, organism-based. As to conditions: in vivo.
The target of data set [19] is 5-hydroxytryptamine receptor 5A (Homo sapiens, UniProt P47898). Put plainly: Displacement of human 5HT5A receptor expressed in HEK293 cells after 120 mins by scintillation counting method. It counts as cell-based.
The nature of data set [20]: Cmax in rat at 1 mg/kg, iv. To be noted: in vivo. The data set is classed as ADME, organism-based. More on the design: dose 1 mg/kg, route intravenous.

Chain of Metabotropic glutamate receptor 8 (Homo sapiens) (O00222 whole entry): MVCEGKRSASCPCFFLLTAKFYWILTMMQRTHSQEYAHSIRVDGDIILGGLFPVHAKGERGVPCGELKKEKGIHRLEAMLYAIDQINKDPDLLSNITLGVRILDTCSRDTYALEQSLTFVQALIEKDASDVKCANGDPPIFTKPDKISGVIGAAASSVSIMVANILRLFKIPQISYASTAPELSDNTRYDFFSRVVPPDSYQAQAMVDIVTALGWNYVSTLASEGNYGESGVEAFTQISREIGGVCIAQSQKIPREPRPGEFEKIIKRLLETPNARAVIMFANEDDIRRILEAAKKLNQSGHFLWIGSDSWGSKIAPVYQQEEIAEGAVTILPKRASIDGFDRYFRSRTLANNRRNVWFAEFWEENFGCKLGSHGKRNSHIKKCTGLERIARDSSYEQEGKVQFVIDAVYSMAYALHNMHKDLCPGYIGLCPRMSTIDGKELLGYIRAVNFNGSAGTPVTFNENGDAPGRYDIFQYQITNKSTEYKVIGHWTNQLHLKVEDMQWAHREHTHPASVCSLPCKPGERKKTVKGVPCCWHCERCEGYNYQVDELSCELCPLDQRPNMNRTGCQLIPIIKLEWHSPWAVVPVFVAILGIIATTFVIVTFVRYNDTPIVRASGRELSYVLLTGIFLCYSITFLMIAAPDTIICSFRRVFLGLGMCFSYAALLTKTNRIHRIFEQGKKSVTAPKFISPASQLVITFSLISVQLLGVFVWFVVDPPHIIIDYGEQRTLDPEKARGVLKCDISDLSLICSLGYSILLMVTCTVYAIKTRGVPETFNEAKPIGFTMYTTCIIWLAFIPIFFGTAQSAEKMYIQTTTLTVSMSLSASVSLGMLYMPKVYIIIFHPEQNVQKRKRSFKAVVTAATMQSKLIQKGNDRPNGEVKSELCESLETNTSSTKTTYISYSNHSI
Chain of Metabotropic glutamate receptor 5 (P41594 whole entry): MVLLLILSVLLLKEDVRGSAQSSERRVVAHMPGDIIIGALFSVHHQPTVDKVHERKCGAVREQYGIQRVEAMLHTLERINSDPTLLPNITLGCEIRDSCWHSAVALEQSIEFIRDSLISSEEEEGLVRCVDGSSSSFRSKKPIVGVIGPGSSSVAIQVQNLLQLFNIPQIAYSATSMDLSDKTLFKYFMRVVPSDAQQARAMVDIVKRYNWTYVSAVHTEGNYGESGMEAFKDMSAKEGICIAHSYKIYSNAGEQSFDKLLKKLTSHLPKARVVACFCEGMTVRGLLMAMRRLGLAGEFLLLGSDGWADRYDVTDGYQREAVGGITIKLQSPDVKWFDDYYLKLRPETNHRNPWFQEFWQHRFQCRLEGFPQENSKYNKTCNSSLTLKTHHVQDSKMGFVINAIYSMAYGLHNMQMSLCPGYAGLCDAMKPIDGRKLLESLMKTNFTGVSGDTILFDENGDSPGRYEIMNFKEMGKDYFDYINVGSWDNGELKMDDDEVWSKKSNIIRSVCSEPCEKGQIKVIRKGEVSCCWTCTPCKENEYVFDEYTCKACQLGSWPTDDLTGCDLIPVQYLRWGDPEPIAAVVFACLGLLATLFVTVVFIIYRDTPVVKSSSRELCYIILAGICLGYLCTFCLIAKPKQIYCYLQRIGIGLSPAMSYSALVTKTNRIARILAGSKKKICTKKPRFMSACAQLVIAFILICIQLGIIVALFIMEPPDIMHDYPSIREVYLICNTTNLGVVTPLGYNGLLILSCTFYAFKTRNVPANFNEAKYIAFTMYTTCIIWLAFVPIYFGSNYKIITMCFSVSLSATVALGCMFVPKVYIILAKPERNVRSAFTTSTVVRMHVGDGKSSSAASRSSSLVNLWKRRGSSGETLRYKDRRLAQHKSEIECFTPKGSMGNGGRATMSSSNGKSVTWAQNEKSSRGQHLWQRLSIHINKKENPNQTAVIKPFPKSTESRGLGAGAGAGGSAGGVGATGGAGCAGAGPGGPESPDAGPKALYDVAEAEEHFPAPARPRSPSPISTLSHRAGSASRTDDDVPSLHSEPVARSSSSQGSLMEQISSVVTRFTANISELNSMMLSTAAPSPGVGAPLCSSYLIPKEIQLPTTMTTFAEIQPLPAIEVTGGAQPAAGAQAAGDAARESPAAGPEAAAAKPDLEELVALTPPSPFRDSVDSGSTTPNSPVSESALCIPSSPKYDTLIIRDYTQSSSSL
Chain of 5-hydroxytryptamine receptor 5A (P47898 whole entry): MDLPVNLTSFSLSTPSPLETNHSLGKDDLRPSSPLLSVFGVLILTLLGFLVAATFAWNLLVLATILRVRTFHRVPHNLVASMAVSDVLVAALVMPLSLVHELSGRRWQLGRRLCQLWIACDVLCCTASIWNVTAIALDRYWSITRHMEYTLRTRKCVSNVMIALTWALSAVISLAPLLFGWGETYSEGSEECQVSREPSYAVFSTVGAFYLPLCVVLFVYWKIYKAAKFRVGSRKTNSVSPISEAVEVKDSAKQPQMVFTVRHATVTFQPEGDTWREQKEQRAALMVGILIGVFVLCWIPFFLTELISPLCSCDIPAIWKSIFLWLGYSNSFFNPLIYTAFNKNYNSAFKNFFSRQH
Chain of 5-hydroxytryptamine receptor 2A (P28223 whole entry): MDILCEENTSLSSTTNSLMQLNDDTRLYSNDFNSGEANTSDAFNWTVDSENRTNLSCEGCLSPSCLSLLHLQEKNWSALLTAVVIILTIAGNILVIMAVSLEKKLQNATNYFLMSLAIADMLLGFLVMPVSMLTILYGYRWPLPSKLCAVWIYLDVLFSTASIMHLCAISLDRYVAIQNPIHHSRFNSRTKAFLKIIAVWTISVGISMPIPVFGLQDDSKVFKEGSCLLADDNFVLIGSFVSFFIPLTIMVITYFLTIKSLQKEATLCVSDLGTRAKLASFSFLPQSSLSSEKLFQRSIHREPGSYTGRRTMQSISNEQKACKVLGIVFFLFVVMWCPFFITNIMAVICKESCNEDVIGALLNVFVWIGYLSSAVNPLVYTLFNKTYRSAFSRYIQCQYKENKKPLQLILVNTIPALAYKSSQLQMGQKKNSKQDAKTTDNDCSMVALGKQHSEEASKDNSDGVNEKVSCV
Chain of Metabotropic glutamate receptor 4 (Homo sapiens) (Q14833 whole entry): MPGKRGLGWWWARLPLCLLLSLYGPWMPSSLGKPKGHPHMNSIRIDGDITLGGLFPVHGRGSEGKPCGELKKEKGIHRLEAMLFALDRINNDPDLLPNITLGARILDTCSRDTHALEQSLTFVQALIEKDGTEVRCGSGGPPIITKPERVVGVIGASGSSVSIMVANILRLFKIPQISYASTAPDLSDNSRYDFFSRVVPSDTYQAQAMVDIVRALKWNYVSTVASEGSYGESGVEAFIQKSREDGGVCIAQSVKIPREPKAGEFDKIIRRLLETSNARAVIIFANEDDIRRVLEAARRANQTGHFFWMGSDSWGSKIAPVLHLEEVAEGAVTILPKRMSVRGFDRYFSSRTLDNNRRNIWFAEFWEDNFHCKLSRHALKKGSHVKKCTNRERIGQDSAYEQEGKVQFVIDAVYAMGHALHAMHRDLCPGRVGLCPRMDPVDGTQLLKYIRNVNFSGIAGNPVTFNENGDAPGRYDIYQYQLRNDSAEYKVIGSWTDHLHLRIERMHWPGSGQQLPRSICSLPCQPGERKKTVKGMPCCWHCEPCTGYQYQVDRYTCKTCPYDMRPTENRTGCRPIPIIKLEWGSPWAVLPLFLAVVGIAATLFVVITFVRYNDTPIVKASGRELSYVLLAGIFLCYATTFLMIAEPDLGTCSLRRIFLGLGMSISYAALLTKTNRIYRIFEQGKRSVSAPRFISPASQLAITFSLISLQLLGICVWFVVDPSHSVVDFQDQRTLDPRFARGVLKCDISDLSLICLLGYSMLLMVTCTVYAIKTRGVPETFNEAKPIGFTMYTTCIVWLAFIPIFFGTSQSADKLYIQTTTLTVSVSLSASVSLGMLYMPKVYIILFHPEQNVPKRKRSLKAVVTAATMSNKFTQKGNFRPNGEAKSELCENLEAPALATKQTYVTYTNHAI

A word on the inhibition: it is the drop in the measured response relative to a control, in per cent. As a reminder, the EC50 is the concentration needed to bring the measured effect to its halfway point. The IC50 is the midpoint of a concentration-inhibition curve. In general, Ki refers to the dissociation constant of the complex between target and ligand, obtained from inhibition or displacement. As usually defined, the Emax is the greatest response seen or fitted, relative to the assay's reference. The bioavailability is dose-corrected exposure relative to a reference, in per cent. A low value points to poor availability. For orientation: half-life means the time in which the quantity being followed falls by half. Usually Cmax stands for the maximum level reached in the sampled fluid or tissue. On to `CC(=O)c1ccc(OCc2ccc(Oc3cc(-c4nn[nH]n4)ccn3)cc2)c(C)c1O`, for which the inhibition in [1] worked out at 22.9%; in data set [3] it was 6.4%; in data set [4], 5.3%; in [13] it was 5.2%. Also, in [2], the EC50 lay within 0.201 to 0.287 µM. In addition, the Activity result in [5] was “Dose-dependent effect”; in data set [10], less than 20%; in data set [15] it was less than 20%; in [16], less than 40%. In data set [5], this molecule yielded an ID100 of 1 µg/kg. The IC50 in data set [6] was greater than 12.5 µM; in data set [11], 0.0241 µM; in [12], greater than 8 µM. Moreover, the figures for the Ki in data set [7], in data set [8] and in data set [19] were greater than 6.31 µM, greater than 7.47 µM and greater than 6.9 µM, respectively. For the same molecule, the Emax in data set [9] came to 107%. In [14], the BPR is reported as less than 1%. Moreover, the bioavailability in data set [17] amounted to 39%. In data set [18], this molecule gave a half-life of 2 h. The molecule further registered a Cmax in [20] of 2160 ng/mL.
